In ChEMBL document CHEMBL3044672, “N9- and N7-(Chloromethyl Phenymethyl)Chloropurine Derivatives from , '-Dichloroxylenes: Synthesis and Anticancer Activity” (2005):

How the values were obtained:
Assay type in all cases: functional
[1] = test system: CCRF-CEM; assay: Cytotoxicity against Homo sapiens (human) CCRF-CEM cells after 48 hr by sulforhodamine B assay; conditions: for CC50: read-out: LC50 (the source's name)
[2] = test system: MOLT-4; assay: Cytotoxicity against Homo sapiens (human) MOLT4 cells after 48 hr by sulforhodamine B assay; conditions: MOLT-4, 48 h; for CC50: read-out: LC50 (the source's name)
[3] = test system: CAKI-1; assay: Cytotoxicity against Homo sapiens (human) Caki1 cells after 48 hr by sulforhodamine B assay; conditions: CAKI-1, 48 h; for CC50: read-out: LC50 (the source's name)
[4] = test system: HCT-116; assay: Cytotoxicity against Homo sapiens (human) HCT116 cells after 48 hr by sulforhodamine B assay; conditions: HCT-116, 48 h; for CC50: read-out: LC50 (the source's name)
[5] = test system: M14; assay: Cytotoxicity against Homo sapiens (human) M14 cells after 48 hr by sulforhodamine B assay; conditions: M14, 48 h
[6] = test system: SK-MEL-28; assay: Cytotoxicity against Homo sapiens (human) SK-MEL-28 cells after 48 hr by sulforhodamine B assay; conditions: SK-MEL-28, 48 h
[7] = Cytotoxicity against Homo sapiens (human) NCI-ADR-RES cells after 48 hr by sulforhodamine B assay
[8] = test system: Hs-578T; assay: Cytotoxicity against Homo sapiens (human) Hs 578T cells after 48 hr by sulforhodamine B assay
[9] = test system: HCC 2998; assay: Cytotoxicity against Homo sapiens (human) HCC2998 cells after 48 hr by sulforhodamine B assay; conditions: HCC 2998, 48 h; for CC50: read-out: LC50 (the source's name)
[10] = test system: UO-31; assay: Cytotoxicity against Homo sapiens (human) UO31 cells after 48 hr by sulforhodamine B assay; conditions: UO-31, 48 h
[11] = test system: OVCAR-5; assay: Cytotoxicity against Homo sapiens (human) OVCAR5 cells after 48 hr by sulforhodamine B assay; conditions: OVCAR-5, 48 h; for CC50: read-out: LC50 (the source's name)
[12] = test system: TK-10; assay: Cytotoxicity against Homo sapiens (human) TK10 cells after 48 hr by sulforhodamine B assay; conditions: TK-10, 48 h; for CC50: read-out: LC50 (the source's name)
[13] = test system: ACHN; assay: Cytotoxicity against Homo sapiens (human) ACHN cells after 48 hr by sulforhodamine B assay; conditions: for CC50: read-out: LC50 (the source's name)
[14] = test system: U-251; assay: Cytotoxicity against Homo sapiens (human) U251 cells after 48 hr by sulforhodamine B assay; conditions: U-251, 48 h
[15] = test system: UACC-257; assay: Cytotoxicity against Homo sapiens (human) UACC257 cells after 48 hr by sulforhodamine B assay; conditions: UACC-257, 48 h
[16] = test system: 786-0; assay: Cytotoxicity against Homo sapiens (human) 786-0 cells after 48 hr by sulforhodamine B assay; conditions: 786-0, 48 h
[17] = test system: IGROV-1; assay: Cytotoxicity against Homo sapiens (human) IGROV1 cells after 48 hr by sulforhodamine B assay; conditions: IGROV-1, 48 h
[18] = test system: A549; assay: Cytotoxicity against Homo sapiens (human) A549 cells after 48 hr by sulforhodamine B assay; conditions: A549, 48 h; for CC50: read-out: LC50 (the source's name)
[19] = test system: A498; assay: Cytotoxicity against Homo sapiens (human) A498 cells after 48 hr by sulforhodamine B assay; conditions: A498, 48 h
[20] = test system: NCI-H460; assay: Cytotoxicity against Homo sapiens (human) NCI-H460 cells after 48 hr by sulforhodamine B assay; conditions: NCI-H460, 48 h; for CC50: read-out: LC50 (the source's name)
[21] = test system: SW-620; assay: Cytotoxicity against Homo sapiens (human) SW620 cells after 48 hr by sulforhodamine B assay; conditions: SW-620, 48 h; for CC50: read-out: LC50 (the source's name)
[22] = test system: NCI-H226; assay: Cytotoxicity against Homo sapiens (human) NCI-H226 cells after 48 hr by sulforhodamine B assay; conditions: NCI-H226, 48 h; for CC50: read-out: LC50 (the source's name)
[23] = test system: DU-145; assay: Cytotoxicity against Homo sapiens (human) DU145 cells after 48 hr by sulforhodamine B assay; conditions: DU-145, 48 h
[24] = test system: NCI-H322M; assay: Cytotoxicity against Homo sapiens (human) NCI-H322M cells after 48 hr by sulforhodamine B assay; conditions: for CC50: read-out: LC50 (the source's name)
[25] = test system: SK-MEL-2; assay: Cytotoxicity against Homo sapiens (human) SK-MEL-2 cells after 48 hr by sulforhodamine B assay; conditions: SK-MEL-2, 48 h
[26] = test system: SF-295; assay: Cytotoxicity against Homo sapiens (human) SF295 cells after 48 hr by sulforhodamine B assay; conditions: SF-295, 48 h; for CC50: read-out: LC50 (the source's name)
[27] = test system: HCT-15; assay: Cytotoxicity against Homo sapiens (human) HCT15 cells after 48 hr by sulforhodamine B assay; conditions: HCT-15, 48 h; for CC50: read-out: LC50 (the source's name)
[28] = test system: HOP-92; assay: Cytotoxicity against Homo sapiens (human) HOP92 cells after 48 hr by sulforhodamine B assay; conditions: HOP-92, 48 h; for CC50: read-out: LC50 (the source's name)
[29] = test system: OVCAR-3; assay: Cytotoxicity against Homo sapiens (human) OVCAR3 cells after 48 hr by sulforhodamine B assay; conditions: OVCAR-3, 48 h
[30] = test system: MCF7; assay: Cytotoxicity against Homo sapiens (human) MCF7 cells assessed as cell growth at 10^-4 M after 48 hr by Alamar blue assay; conditions: MCF7, 48 h, read-out: Activity
[31] = test system: T47D; assay: Cytotoxicity against Homo sapiens (human) T47D cells after 48 hr by sulforhodamine B assay
[32] = test system: MDA-MB-435; assay: Cytotoxicity against Homo sapiens (human) MDA-MB-435 cells after 48 hr by sulforhodamine B assay; conditions: MDA-MB-435, 48 h

Structure (SMILES): Nc1nc(Cl)c2ncn(Cc3ccc(CCl)cc3)c2n1
- TGI [1]: > 100 µM
- CC50 [1]: > 100 µM
- TGI [2]: > 100 µM
- CC50 [2]: > 100 µM
- TGI [3]: 9.77 µM
- CC50 [3]: 34.7 µM
- TGI [4]: 15 µM
- CC50 [4]: 56.2 µM
- LC50 [5]: > 100 µM
- TGI [5]: 38 µM
- LC50 (concentration killing 50% of cells) [6]: > 100 µM
- TGI [6]: 44.7 µM
- LC50 (concentration killing 50% of cells) [7]: > 100 µM
- TGI [7]: 26.9 µM
- LC50 [8]: > 100 µM
- TGI [8]: > 100 µM
- TGI [9]: 8.91 µM
- CC50 [9]: 75.9 µM
- LC50 (concentration causing 50% net cell kill) [10]: 55 µM
- TGI [10]: 25.1 µM
- TGI [11]: 14.8 µM
- CC50 [11]: > 100 µM
- TGI [12]: 40.7 µM
- CC50 [12]: 97.7 µM
- TGI [13]: 25.1 µM
- CC50 [13]: 64.6 µM
- LC50 (concentration killing 50% of cells) [14]: 44.7 µM
- TGI [14]: 12 µM
- LC50 (concentration killing 50% of cells) [15]: > 100 µM
- TGI [15]: 47.9 µM
- LC50 [16]: > 100 µM
- TGI [16]: 93.3 µM
- LC50 [17]: 53.7 µM
- TGI [17]: 22.9 µM
- TGI [18]: 75.9 µM
- CC50 [18]: > 100 µM
- LC50 (lethal concentration, 50% cell kill) [19]: > 100 µM
- TGI [19]: 85.1 µM
- TGI [20]: 9.95 µM
- CC50 [20]: 63.1 µM
- TGI [21]: 13.8 µM
- CC50 [21]: 87.1 µM
- TGI [22]: 37.1 µM
- CC50 [22]: > 100 µM
- LC50 [23]: 43.6 µM
- TGI [23]: 19.5 µM
- TGI [24]: 42.7 µM
- CC50 [24]: 87.1 µM
- LC50 (concentration killing 50% of cells) [25]: 74.1 µM
- TGI [25]: 28.8 µM
- TGI [26]: 27.5 µM
- CC50 [26]: 72.4 µM
- TGI [27]: 19.9 µM
- CC50 [27]: 67.6 µM
- TGI [28]: > 100 µM
- CC50 [28]: > 100 µM
- LC50 [29]: 22.9 µM
- TGI [29]: 5.5 µM
- growth at 100 µM [30]: 0%
- LC50 [31]: > 100 µM
- TGI [31]: 39.8 µM
- LC50 [32]: > 100 µM
- TGI [32]: 42.7 µM

Structure (SMILES): Nc1nc(Cl)c2ncn(Cc3cccc(CCl)c3)c2n1
- GI50 [1]: 3.02 µM
- TGI [1]: > 100 µM
- CC50 [1]: > 100 µM
- GI50 [2]: 4.78 µM
- TGI [2]: > 100 µM
- CC50 [2]: > 100 µM
- GI50 [3]: 0.24 µM
- TGI [3]: 1.51 µM
- CC50 [3]: 15.8 µM
- GI50 [4]: 1.99 µM
- TGI [4]: 3.89 µM
- CC50 [4]: 75.9 µM
- GI50 [5]: 3.63 µM
- LC50 [5]: 41.7 µM
- TGI [5]: 11.7 µM
- GI50 [6]: 4.46 µM
- LC50 (concentration killing 50% of cells) [6]: 74.1 µM
- TGI [6]: 19.1 µM
- GI50 [7]: 4.89 µM
- LC50 (concentration killing 50% of cells) [7]: 75.9 µM
- TGI [7]: 19.9 µM
- GI50 [8]: 11.5 µM
- LC50 [8]: > 100 µM
- TGI [8]: 60.2 µM
- GI50 [9]: 3.02 µM
- TGI [9]: 4.89 µM
- CC50 [9]: 77.6 µM
- GI50 [10]: 13.5 µM
- LC50 (concentration causing 50% net cell kill) [10]: 77.6 µM
- TGI [10]: 32.4 µM
- GI50 [11]: 11 µM
- TGI [11]: 25.1 µM
- CC50 [11]: 57.5 µM
- GI50 [12]: 2.39 µM
- TGI [12]: 7.08 µM
- CC50 [12]: 27.5 µM
- GI50 [13]: 2.88 µM
- TGI [13]: 8.71 µM
- CC50 [13]: 29.5 µM
- GI50 [14]: 1.82 µM
- LC50 (concentration killing 50% of cells) [14]: 9.33 µM
- TGI [14]: 4.07 µM
- GI50 [15]: 5.75 µM
- LC50 (concentration killing 50% of cells) [15]: 49 µM
- TGI [15]: 19.5 µM
- GI50 [16]: 6.6 µM
- LC50 [16]: 91.2 µM
- TGI [16]: 26.3 µM
- GI50 [17]: 3.46 µM
- LC50 [17]: 55 µM
- TGI [17]: 12.9 µM
- GI50 [18]: 12.3 µM
- TGI [18]: 27.5 µM
- CC50 [18]: 63.1 µM
- GI50 [19]: 25.1 µM
- LC50 (lethal concentration, 50% cell kill) [19]: > 100 µM
- TGI [19]: 51.3 µM
- GI50 [20]: 4.26 µM
- TGI [20]: 15.8 µM
- CC50 [20]: 47.9 µM
- GI50 [21]: 3.8 µM
- TGI [21]: 11.2 µM
- CC50 [21]: 57.5 µM
- GI50 [22]: 10.7 µM
- TGI [22]: 42.6 µM
- CC50 [22]: > 100 µM
- GI50 [23]: 4.26 µM
- LC50 [23]: 40.7 µM
- TGI [23]: 16.6 µM
- GI50 [24]: 10.5 µM
- TGI [24]: 22.4 µM
- CC50 [24]: 46.8 µM
- GI50 [25]: 10.7 µM
- LC50 (concentration killing 50% of cells) [25]: > 100 µM
- TGI [25]: 66.1 µM
- GI50 [26]: 3.38 µM
- TGI [26]: 14.5 µM
- CC50 [26]: 39.8 µM
- GI50 [27]: 2.51 µM
- TGI [27]: 6.76 µM
- CC50 [27]: 33.1 µM
- GI50 [28]: 0.63 µM
- TGI [28]: 38 µM
- CC50 [28]: > 100 µM
- GI50 [29]: 0.72 µM
- LC50 [29]: 5.49 µM
- TGI [29]: 2.29 µM
- growth at 100 µM [30]: 0%
- GI50 [31]: 6.02 µM
- LC50 [31]: > 100 µM
- TGI [31]: 37.1 µM
- GI50 [32]: 3.81 µM
- LC50 [32]: 85.1 µM
- TGI [32]: 22.4 µM
